These results are taken from patent publication US4486584A, “Demethylmacrocin compounds and derivatives thereof” (Eli Lilly and Company, priority 1982, dated 1984).

Converted amounts (≈) assume the structure as drawn.

Data set [1] has as its system pathogenic bacteria, especially gram-positive bacteria and Mycoplasma species. Put plainly: Inhibition of growth of pathogenic organisms (general statement). The format is cell-based. From the text: (§1) Table 8 summarizes the minimal inhibitory concentrations (MIC), as measured by standard agar-dilution assays, at which DOMM (free base) inhibits certain bacteria.
The test system of data set [2] is Streptomyces fradiae E2724.1. Put plainly: Antibiotic sensitivity, sensitivity discs on seeded agar plates. Further: key: -: resistance (no zones of inhibition); +: sensitivity (zones of inhibition); trace of sensitivity. Type of data set: cell-based. The settings on record: discs: chloramphenicol, cephaloridine, tetracycline, vancomycin 30 μg, erythromycin 15 μg, lincomycin 2 μg, polymyxin B 300 units, streptomycin 10 μg. From the text: (§2) ^a Determined by using sensitivity discs padded onto seededagar

The subject of data set [3] is Streptomyces fradiae ATCC 31664. The description is as above. The format is cell-based. The settings on record: discs: chloramphenicol, cephaloridine, tetracycline, vancomycin 30 μg, erythromycin 15 μg, lincomycin 2 μg, polymyxin B 300 units, streptomycin 10 μg.
Source text: as §2

Data set [4] deals with Staphylococcus aureus 3055. Put plainly: Experimental infection in mice, ED50. Type of data set: in vivo. The settings on record: sc, subcutaneous, two doses, bacterial challenge (X LD50) = 139, read-out: Subcutaneous ED50 (effective dose to protect 50% of the test animals). The protocol:
(§3) The DOMM compounds have shown in vivo antimicrobial activity against experimental bacterial infections. When two doses of test compound were administered to mice in experimental infections, the activity observed was measured as an ED50 value [effective dose in mg/kg to protect 50% of the test animals: see Warren Wick, et al., J. Bacteriol. 81, 233-235 (1961)].

For data set [5], the system named is Streptococcus pyogenes C203. Put plainly: Experimental infection in mice, ED50. Type of data set: in vivo. The settings on record: sc, subcutaneous, two doses, bacterial challenge (X LD50) = 133, read-out: Subcutaneous ED50 (effective dose to protect 50% of the test animals). The procedure: as §3
Data set [6] concerns Streptococcus pneumoniae Park I. Put plainly: Experimental infection in mice, ED50. The format is in vivo. The settings on record: sc, subcutaneous, two doses, bacterial challenge (X LD50) = 41.2, read-out: Subcutaneous ED50 (effective dose to protect 50% of the test animals). The protocol: as §3
Another data set in a line: Solubility. Type of data set: physicochemical.
The next data set deals with Pasteurella multocida. Put plainly: Standard agar-dilution MIC assay. The format is cell-based. The settings on record: DOMM free base.
Source text: as §1

Another data set relates to Mycoplasma hyopneumoniae. Put plainly: Standard agar-dilution MIC assay. Type of data set: cell-based. The settings on record: Mesomycoplasma hyopneumoniae, DOMM free base.
Source text: as §1

The test system of data set [7] is Streptococcus sp. (Group D) 282. Put plainly: Standard agar-dilution MIC assay. The format is cell-based. The settings on record: DOMM free base.
Source text: as §1

The subject of a further data set is Mycoplasma gallisepticum. Put plainly: Standard agar-dilution MIC assay. The settings on record: Mycoplasmoides gallisepticum, DOMM free base. Type of data set: cell-based.
Source text: as §1

A further data set relates to Mycoplasma hyorhinis. Put plainly: Standard agar-dilution MIC assay. Type of data set: cell-based. The settings on record: DOMM free base.
Source text: as §1

For data set [8], the system named is Streptococcus pyogenes C203. Put plainly: Standard agar-dilution MIC assay. The format is cell-based. The settings on record: DOMM free base.
Source text: as §1

The subject of another data set is Pasteurella hemolytica. Put plainly: Standard agar-dilution MIC assay. The format is cell-based. The settings on record: DOMM free base.
Source text: as §1

The subject of data set [9] is Streptococcus pneumoniae Park I. Put plainly: Standard agar-dilution MIC assay. The format is cell-based. The settings on record: DOMM free base.
Source text: as §1

Data set [10] is described as follows: Electrometric titration (pKa). Type of data set: physicochemical. The settings on record: 66% aqueous dimethylformamide. From the text:
Electrometric titration of DOMM in 66% aqueous dimethylformamide indicates the presence of a titratable group with a pKa value of about 7.14.
Wherever Antibiotic sensitivity is given: key: -: resistance (no zones of inhibition); +: sensitivity (zones of inhibition); trace of sensitivity.

As to `CCC1OC(=O)CC(O)C(C)C(OC2OC(C)C(OC3CC(C)(O)C(O)C(C)O3)C(N(C)C)C2O)C(CCO)CC(C)C(=O)C=CC(C)=CC1COC1OC(C)C(O)C(O)C1O` (centres unmarked) [dihydro-DOMM, 20-dihydro-2'"-O-demethylmacrocin], the “growth inhibition / antibacterial activity (in words)” value in data set [1] was “especially active against grampositive microorganisms and Mycoplasma species”.

`CN(C)C1C(=O)C(C(N)=O)=C(O)C2(O)C(=O)C3=C(O)c4c(O)cccc4C(C)(O)C3CC12` (centres unmarked) [Tetracycline]: the Antibiotic sensitivity entry in [2] and in [3] was “+” in each case.

Turning to Polymyxin B, the Antibiotic sensitivity result in data set [3] is reported as “+”.

For the molecule `CCC[C@@H]1C[C@@H](C(=O)N[C@@H]([C@H]2O[C@H](SC)[C@H](O)[C@@H](O)[C@H]2O)[C@@H](C)O)N(C)C1` [Lincomycin], the Antibiotic sensitivity result in [2] and in [3] was “-” in each case.

As for `CN[C@H](CC(C)C)C(=O)N[C@H]1C(=O)N[C@@H](CC(N)=O)C(=O)N[C@H]2C(=O)N[C@H]3C(=O)N[C@H](C(=O)N[C@H](C(=O)O)c4cc(O)cc(O)c4-c4cc3ccc4O)[C@H](O)c3ccc(c(Cl)c3)Oc3cc2cc(c3O[C@@H]2O[C@H](CO)[C@@H](O)[C@H](O)[C@H]2O[C@H]2C[C@](C)(N)[C@H](O)[C@H](C)O2)Oc2ccc(cc2Cl)[C@H]1O` [Vancomycin], the Antibiotic sensitivity entry in data set [2] and in [3] was “+” in each case.

Consider `CCC1OC(=O)CC(O)C(C)C(OC2OC(C)C(OC3CC(C)(O)C(O)C(C)O3)C(N(C)C)C2O)C(CC=O)CC(C)C(=O)C=CC(C)=CC1COC1OC(C)C(O)C(O)C1O` (centres unmarked) [DOMM, 2'"-O-demethylmacrocin], for which the ED50 was determined as 3.8 mg/kg in data set [4], 1.1 mg/kg in data set [5] and 37.5 mg/kg in data set [6]. In addition, the “solubility in most polar organic solvents” value in the data set “Solubility” (acetone, methanol, ethanol, chloroform, dimethylformamide and dimethyl sulfoxide) was “soluble”. Also, the solubility in water entry in the data set “Solubility” (water) is given as “soluble”. For the same molecule, the MIC in the data set on Pasteurella multocida turned out to be 12.5 µg/mL (≈ 14.1 µM); with Mycoplasma hyopneumoniae, 0.78 µg/mL (≈ 0.878 µM); in data set [7], 4 µg/mL (≈ 4.5 µM); against Mycoplasma gallisepticum, 0.78 µg/mL (≈ 0.878 µM); in the data set on Mycoplasma hyorhinis, 3.12 µg/mL (≈ 3.51 µM); in [8], 0.25 µg/mL (≈ 0.282 µM). In addition, the values for the MIC (in the data set with Pasteurella hemolytica; in [9]) were 50 µg/mL (≈ 56.3 µM) and 0.25 µg/mL (≈ 0.282 µM), respectively. The pKa value result in data set [10] is reported as “about 7.14”. The “growth inhibition / antibacterial activity (in words)” value in data set [1] is “especially active against grampositive microorganisms and Mycoplasma species”.

In the case of `O=C(Cc1cccs1)N[C@@H]1C(=O)N2C(C(=O)[O-])=C(C[n+]3ccccc3)CS[C@H]12` [Cephaloridine], the Antibiotic sensitivity entry in data set [2] and in [3] was “+” in each case.

`[H]/N=C(/N)N[C@H]1[C@H](O)[C@@H](O)[C@H](O[C@@H]2O[C@@H](C)[C@](O)(C=O)[C@H]2O[C@@H]2O[C@@H](CO)[C@H](O)[C@@H](O)[C@@H]2NC)[C@@H](N/C(N)=N\[H])[C@@H]1O` [Streptomycin]: the Antibiotic sensitivity entry in data set [2] and in data set [3] was “+” throughout.

`O=C(N[C@H](CO)[C@H](O)c1ccc([N+](=O)[O-])cc1)C(Cl)Cl` [Chloramphenicol]: the Antibiotic sensitivity result in [2] and in [3] was “+” in each case.
